In ChEMBL document CHEMBL1201862, “PubChem BioAssay data set” (2004):
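Protocol summary: plate cells (96-well), add compound at 5 concentrations, incubate 48 h, interpolate endpoints linearly. GI50 is the concentration that inhibits growth by half.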 Activity calls are given as the source filed them. Cut-off read from the data, not from the text of the source: active = GI50 up to about 1.1 µM and inactive = higher.

How the values were obtained:
Assay in all cases: NCI tumour cell line growth inhibition, 48 h
[1] = tested on: EKVX
[2] = tested on: UACC-62
[3] = tested on: SNB-75
[4] = tested on: UACC-257
[5] = tested on: HOP-92
[6] = tested on: COLO 205
[7] = tested on: HCT-116
[8] = tested on: HCT-15
[9] = tested on: MOLT-4
[10] = tested on: UO-31
[11] = tested on: K562
[12] = tested on: SF-539
[13] = tested on: HCC 2998
[14] = tested on: Malme-3M
[15] = tested on: NCI-H226
[16] = tested on: RPMI-8226
[17] = tested on: SK-MEL-5
[18] = tested on: LOX IMVI
[19] = tested on: TK-10

SMILES	GI50 [1]	GI50 [2]	GI50 [3]	GI50 [4]	GI50 [5]	GI50 [6]	GI50 [7]	GI50 [8] [µM]	GI50 [9]	GI50 [10]	GI50 [11]	GI50 [12]	GI50 [13]	GI50 [14]	GI50 [15]	GI50 [16]	GI50 [17]	GI50 [18]	GI50 [19]
N/N=c1\c2ccccc2c2ccc3c4ccccc4/c(=N\N)c3c12	> 100 µM (inactive)	> 100 µM (inactive)	37.3 µM (inactive)	> 100 µM (inactive)	> 100 µM (inactive)	> 100 µM (inactive)	> 100 µM (inactive)	> 100	> 100 µM (inactive)	> 100 µM (inactive)	> 100 µM (inactive)	> 100 µM (inactive)	> 100 µM (inactive)	> 100 µM (inactive)	> 100 µM (inactive)	> 100 µM (inactive)	> 100 µM (inactive)		
O=C1NC(=S)NC(=O)C1=Cc1ccc(-c2ccccc2)cc1	> 100 µM (inactive)	> 100 µM (inactive)		> 100 µM (inactive)	> 100 µM (inactive)	> 100 µM (inactive)	51.3 µM (inactive)	> 100	24.7 µM (inactive)	> 100 µM (inactive)	31.6 µM (inactive)	> 100 µM (inactive)	> 100 µM (inactive)	> 100 µM (inactive)	> 100 µM (inactive)	66.2 µM (inactive)	> 100 µM (inactive)	69.3 µM (inactive)	> 100 µM (inactive)
CC[C@@H]1ON(C)[C@H]2CN(C)C(=O)[C@@H]12				> 100 µM (inactive)	> 100 µM (inactive)	> 100 µM (inactive)	> 100 µM (inactive)	> 100	> 100 µM (inactive)	> 100 µM (inactive)	> 100 µM (inactive)		> 100 µM (inactive)		> 100 µM (inactive)	> 100 µM (inactive)	> 100 µM (inactive)	> 100 µM (inactive)	> 100 µM (inactive)
O=c1n(Cc2ccccc2)c2ccccc2n1CC1CS1 (configuration not stated)	> 100 µM (inactive)	> 100 µM (inactive)	58.6 µM (inactive)		> 100 µM (inactive)	> 100 µM (inactive)	> 100 µM (inactive)	> 100	> 100 µM (inactive)	> 100 µM (inactive)	> 100 µM (inactive)	> 100 µM (inactive)	> 100 µM (inactive)	> 100 µM (inactive)	> 100 µM (inactive)	> 100 µM (inactive)		> 100 µM (inactive)	> 100 µM (inactive)
COc1ccc(C2C(Cl)C(=O)N2NC(=O)c2ccc(NC(C)=O)cc2)cc1OC (configuration not stated)		> 100 µM (inactive)	> 100 µM (inactive)	> 100 µM (inactive)	> 100 µM (inactive)	> 100 µM (inactive)	> 100 µM (inactive)		> 100 µM (inactive)	> 100 µM (inactive)	> 100 µM (inactive)	> 100 µM (inactive)	> 100 µM (inactive)	> 100 µM (inactive)	> 100 µM (inactive)	> 100 µM (inactive)	> 100 µM (inactive)		> 100 µM (inactive)
CC(=O)Nc1ccc(C(=O)N2N=C(C)/C(=C/c3cccc(O)c3)C2=O)cc1	> 100 µM (inactive)		> 100 µM (inactive)	> 100 µM (inactive)		> 100 µM (inactive)	> 100 µM (inactive)	> 100	> 100 µM (inactive)	> 100 µM (inactive)	> 100 µM (inactive)	> 100 µM (inactive)	> 100 µM (inactive)	> 100 µM (inactive)	> 100 µM (inactive)		> 100 µM (inactive)	> 100 µM (inactive)	> 100 µM (inactive)
CN(C)c1ccc(C=C2C(=O)OC(C)(C)OC2=O)cc1Br	> 100 µM (inactive)	> 100 µM (inactive)	29.5 µM (inactive)	> 100 µM (inactive)	29.4 µM (inactive)	> 100 µM (inactive)	48.9 µM (inactive)		> 100 µM (inactive)	> 100 µM (inactive)	82.6 µM (inactive)	> 100 µM (inactive)	> 100 µM (inactive)	> 100 µM (inactive)	> 100 µM (inactive)	> 100 µM (inactive)	> 100 µM (inactive)	> 100 µM (inactive)	> 100 µM (inactive)
C/C(=N/O)c1cccc(Nc2nc3ccccc3c3[nH]c4ccccc4c23)c1	2.29 µM (inactive)	2.28 µM (inactive)		6.08 µM (inactive)	2.51 µM (inactive)	2.24 µM (inactive)	1.16 µM (inactive)	2.36	0.879 µM (active)	2.88 µM (inactive)	3.44 µM (inactive)	5.74 µM (inactive)		3.92 µM (inactive)	4.8 µM (inactive)	2.26 µM (inactive)	1.63 µM (inactive)	2.22 µM (inactive)	4.6 µM (inactive)
Nc1c(-c2ccccc2[N+](=O)[O-])nc2ccccn12	> 100 µM (inactive)	> 100 µM (inactive)		> 100 µM (inactive)	> 100 µM (inactive)	> 100 µM (inactive)	> 100 µM (inactive)	> 100	> 100 µM (inactive)	> 100 µM (inactive)	> 100 µM (inactive)		> 100 µM (inactive)	> 100 µM (inactive)	> 100 µM (inactive)	> 100 µM (inactive)	> 100 µM (inactive)	> 100 µM (inactive)	> 100 µM (inactive)
CC1(C)OCC=CCO1	> 100 µM (inactive)	> 100 µM (inactive)	> 100 µM (inactive)	> 100 µM (inactive)	> 100 µM (inactive)	> 100 µM (inactive)	> 100 µM (inactive)		> 100 µM (inactive)	> 100 µM (inactive)	67.8 µM (inactive)	67.8 µM (inactive)	> 100 µM (inactive)	> 100 µM (inactive)	> 100 µM (inactive)	> 100 µM (inactive)	> 100 µM (inactive)	50.9 µM (inactive)	> 100 µM (inactive)
O=C1NCCCC12CCCNC2=O	> 100 µM (inactive)			> 100 µM (inactive)		> 100 µM (inactive)	> 100 µM (inactive)	> 100	> 100 µM (inactive)	> 100 µM (inactive)	> 100 µM (inactive)	> 100 µM (inactive)	> 100 µM (inactive)	> 100 µM (inactive)	> 100 µM (inactive)	> 100 µM (inactive)	> 100 µM (inactive)	> 100 µM (inactive)	
Cn1c2ccccc2c2c3c(c4c5ccccc5n(C)c4c21)C(=O)c1ccccc1C3=O	44.9 µM (inactive)	25.9 µM (inactive)	35.3 µM (inactive)	79.6 µM (inactive)	53.3 µM (inactive)	57.7 µM (inactive)	30.1 µM (inactive)	> 100	> 100 µM (inactive)	67.3 µM (inactive)		16.6 µM (inactive)	96.8 µM (inactive)	29.5 µM (inactive)	> 100 µM (inactive)	70 µM (inactive)	56 µM (inactive)	37.3 µM (inactive)	24.3 µM (inactive)
COC(=O)C1=CC2OC1(C)CCC2=O (configuration not stated)	> 100 µM (inactive)	> 10 µM (inactive)	> 100 µM (inactive)	> 100 µM (inactive)		> 100 µM (inactive)	85.3 µM (inactive)	67.9	45.9 µM (inactive)	> 100 µM (inactive)	62.4 µM (inactive)	> 100 µM (inactive)	> 100 µM (inactive)	71.4 µM (inactive)	> 100 µM (inactive)	47.6 µM (inactive)		> 100 µM (inactive)	> 100 µM (inactive)
O=C1c2ccccc2-c2cccc3ccc(Cc4ccc5ccccc5c4)c1c23	> 100 µM (inactive)	> 100 µM (inactive)	26.4 µM (inactive)	> 100 µM (inactive)	49.4 µM (inactive)	> 100 µM (inactive)	> 100 µM (inactive)	> 100	> 100 µM (inactive)	> 100 µM (inactive)	29.4 µM (inactive)	> 100 µM (inactive)	> 100 µM (inactive)	> 100 µM (inactive)		> 100 µM (inactive)	> 100 µM (inactive)		> 100 µM (inactive)
O=C1CC(C(COCc2ccccc2)OCc2ccccc2)CC(=O)N1 (configuration not stated)	> 100 µM (inactive)			> 100 µM (inactive)	> 100 µM (inactive)		> 100 µM (inactive)	> 100	> 100 µM (inactive)	> 100 µM (inactive)	> 100 µM (inactive)	> 100 µM (inactive)	> 100 µM (inactive)	> 100 µM (inactive)	> 100 µM (inactive)	> 100 µM (inactive)	> 100 µM (inactive)	> 100 µM (inactive)	> 100 µM (inactive)
CN1C=C(C(N)=O)Cc2ccsc21	> 100 µM (inactive)	> 100 µM (inactive)	> 100 µM (inactive)	> 100 µM (inactive)	> 100 µM (inactive)	> 100 µM (inactive)	> 100 µM (inactive)	> 100	> 100 µM (inactive)	> 100 µM (inactive)	> 100 µM (inactive)	> 100 µM (inactive)	> 100 µM (inactive)	> 100 µM (inactive)	> 100 µM (inactive)	> 100 µM (inactive)	> 100 µM (inactive)		
COc1cc(C2c3cc4c(cc3[C@@H](Nc3ccc(F)cc3)C3COC[C@H]23)OCO4)cc(OC)c1O (some centres not stated)	9.91 µM (inactive)		2.77 µM (inactive)	7.82 µM (inactive)		4.73 µM (inactive)	2.07 µM (inactive)	2.48	0.118 µM (active)	0.488 µM (active)	4.19 µM (inactive)	0.75 µM (active)	6.85 µM (inactive)			1.49 µM (inactive)	3.43 µM (inactive)		5.9 µM (inactive)
